From PubChem BioAssay (NCI)
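At the GI50, growth is halved. TGI marks complete inhibition of growth.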

Assays:
Assay in all cases: NCI tumour cell line growth inhibition, 384-well format
[1] = test system: MDA-MB-435 melanoma
[2] = test system: NCI-H522 lung
[3] = test system: OVCAR-8 ovarian
[4] = test system: SK-MEL-28 melanoma
[5] = test system: MALME-3M melanoma
[6] = test system: SNB-19 CNS
[7] = test system: HOP-62 NSCLC
[8] = test system: COLO 205 colon
[9] = test system: OVCAR-4 ovarian
[10] = test system: A498 renal
[11] = test system: UACC-62 melanoma
[12] = test system: SK-MEL-2 melanoma
[13] = test system: HCT-116 colon

CNC(=O)c1ccccc1Nc1nc(Nc2ccc3c(c2OC)CCC[C@H](N2CCN(CCO)CC2)C3)ncc1Cl
GI50 [1]: 0.833 µM | TGI [1]: 3.18 µM | GI50 [2]: 0.862 µM | TGI [2]: 2.2 µM | GI50 [3]: 1.5 µM | TGI [3]: 3.18 µM | GI50 [4]: 1.39 µM | TGI [4]: 2.7 µM | GI50 [5]: 0.414 µM | TGI [5]: 1.45 µM | GI50 [6]: 2.2 µM | TGI [6]: 5.9 µM | GI50 [7]: 1.43 µM | TGI [7]: 3.17 µM | GI50 [8]: 0.283 µM | TGI [8]: 0.96 µM | GI50 [9]: 1.08 µM | TGI [9]: 2.79 µM | GI50 [10]: 0.488 µM | TGI [10]: 1.7 µM | GI50 [11]: 0.673 µM | TGI [11]: 1.93 µM | GI50 [12]: 0.304 µM | TGI [12]: 1.05 µM | GI50 [13]: 0.934 µM | TGI [13]: 2.32 µM
